According to US20040033213A1, “Methods of modulating dendritic cells using adjuvants” (Corixa Corporation, priority 2002, published 2004):

What was measured:
Type in all cases: cell-based
[1] = system: Human d7 Cultured Dendritic Cells; test: Flow cytometry phenotype analysis of human d7 cultured dendritic cells after 24 h stimulation; conditions: for HLA-DR MFI: 7 day DCs, 24 h stimulation
[2] = system: 6-7 day cultured human dendritic cells; test: ELISA of cytokines (IL-12 p40, IL-12 p70, TNF-α) in 22 h induction supernatants of cultured human dendritic cells; conditions: for IL-12 p40 / IL-12 p70 / TNF-α: 22 Hrs
From the text: Recent articles have described how human dendritic cells can be derived in vitro from CD14 positive monocyte precursors in peripheral blood. A “buffy coat” preparation can now be commonly obtained from a unit of normal human peripheral blood from a blood bank on request. The leukocyte fraction was harvested from this buffy coat preparation using standard ficoll centrifugation techniques. Subsequently, the leukocyte fraction was labeled with anti-CD 14 antibody coupled to magnetic microbeads. This preparation was then passed over a magnet (Miltanyi Biotech) and CD14 positive monocytes were collected. These CD14 positive monocyte precursors were then cultured for 5-7 days in vitro (5×10^5 cells/ml) with GM-CSF (20 ng/ml) for the duration of the culture. […] After the 24 hour in vitro stimulation culture, cells were washed twice and stained with a panel of monoclonal antibodies specific for different cell surface activation and co-receptor molecules found on mature, activated DCs.
Supernatants from DCs stimulated with LPS, MPL® immunostimulant-S, RC-527, RC-529, and RC-544 were collected and tested by ELISA analysis for cytokines.

[3] = system: murine bone marrow derived DCs + D011.10 T cells; test: APC function of ova-pulsed, lipid A potentiated murine DCs co-cultured with D011.10 T cells (cytokine ELISA)
From the text: These antigen pulsed, lipid A potentiated cells were then washed thoroughly and titered against ova-specific T cell effector cells in vitro at an APC: T cell ratio titration of 1:1 out to as high as 1:512. The effector T cells in this in vitro assay were the antigen naive, but antigen (ova) specific, MHC restricted I-A^d splenic T cells from transgenic D011.10 mice.
D011.10 TCR-transgenic mice were used in these experiments as donors of antigen specific naive T cells. In their germline DNA these mice contain rearranged TCR-Vα and -Vβ genes that encode a T cell receptor (TCR) specific for the ovalbumin peptide 323-339 bound to IA^d (Balb/c) Class II MHC molecules. The transgenic ova peptide specific TCR can be detected with the KJ1-26 monoclonal antibody (mAb) that binds only to this particular TCR heterodimer. These cells provide a ready source of “normal” antigen (ova)-specific effector T cells. Effective antigen-mediated APC stimulation of those T cells is generally measured by ELISA quantitation of IL-2 or IFN-γ in the culture supernatants of DC+D011.10 T cells after 24-48 hours of incubation.
In one experiment, murine bone marrow derived DCs (6 day cultures) were pulsed with ova (50 μg/ml-5×10^5 cells/ml) and then potentiated overnight with LPS(R595), MPL® immunostimulant-S, RC-527, RC-529 or RC-544 prior to being cultured together with naive D011.10 effector T cells (FIGS. 1-7). The APC function of these DCs as measured by their ability to stimulate IL-2, IFN-γ IL-12 (p70) and IL-12 (p40) secretion in the DC+D011.10 co-culture systems was analyzed. All of the data shown in FIGS. 1-7 was developed from DCs maintained in lipid A induction cultures for either 15 or 38 hours prior to use in the T cell assay.

[4] = system: cultured human DCs + autologous T cells
[5] = Exp. 091698, 24 h, LPS 10 ng/ml, others 100 ng/ml
[6] = Exp. 092398, 24 h, LPS 10 ng/ml, others 100 ng/ml
[7] = Exp. 093098, 24 h, LPS 10 ng/ml, others 100 ng/ml
[8] = Exp. # 092398, Day 7, LPS 10 ng/ml, others 100 ng/ml
[9] = Exp. # 093098, LPS 10 ng/ml, others 100 ng/ml

With CCCCCCCCCCCC(=O)OC(CCCCCCCCCCC)CC(=O)NC(CO)COC1OC(CO)C(OP(=O)(O)O)C(OC(=O)CC(CCCCCCCCCCC)OC(=O)CCCCCCCCCCC)C1NC(=O)CC(CCCCCCCCCCC)OC(=O)CCCCCCCCCCC (centres unmarked) [RC-544] the “CD 1a % positive cells” value [1, 5] was 11.6%, the “CD 1a MFI” value [1, 5] was 7.38 and the “CD 4 % positive cells” value [1, 5] was 70.6%. For the same molecule, the “CD 4 MFI” value [1, 5] was 2.17, the “CD 14 % positive cells” value [1, 5] was 7.6% and the “CD 35 % positive cells” value [1, 5] was 52.5%. For the same molecule, the “CD 35 MFI” value [1, 5] was 2.85, the “CD 40 MFI” value [1, 5] was 31.8 and the “CD 44 MFI” value [1, 5] was 242. The “CD 54 MFI” value [1, 5] was 26.1, the “CD 62 L % positive cells” value [1, 5] was 11.6% and the “CD 69 % positive cells” value [1, 5] was 10.8%. For the same molecule, the “CD 80 % positive cells” value [1, 5] was 99.2%, the “CD 80 MFI” value [1, 5] was 5.99 and the “CD 83 % positive cells” value [1, 5] was 94.3%. For the same molecule, the “CD 83 MFI” value [1, 5] was 2.72, the “CD 86 % positive cells” value [1, 5] was 99.7% and the “CD 86 MFI” value [1, 5] was 15.3. For the same molecule, the “CD 95 % positive cells” value [1, 5] was 86.0%, the “CD 95 MFI” value [1, 5] was 1.31 and the “HLA-DR MFI” value ([1]; Exp. 091698, LPS 10 ng/ml, others 100 ng/ml) was 544-S 60.8. For the same molecule, the “CD 1a % positive cells” value [1, 6] was 75.6%, the “CD 1a MFI” value [1, 6] was 4.44 and the “CD 4 % positive cells” value [1, 6] was 75.7%. For the same molecule, the “CD 4 MFI” value [1, 6] was 2.80, the “CD 14 % positive cells” value [1, 6] was 5.0% and the “CD 35 % positive cells” value [1, 6] was 59.1%. The “CD 35 MFI” value [1, 6] was 2.98, the “CD 40 MFI” value [1, 6] was 33.7 and the “CD 54 MFI” value [1, 6] was 32.7. For the same molecule, the “CD 62 L % positive cells” value [1, 6] was 7.1%, the “CD 69 % positive cells” value [1, 6] was 10.1% and the “CD 80 % positive cells” value [1, 6] was 99.1%. For the same molecule, the “CD 80 MFI” value [1, 6] was 7.56, the “CD 83 % positive cells” value [1, 6] was 97.1% and the “CD 83 MFI” value [1, 6] was 3.52. For the same molecule, the “CD 86 % positive cells” value [1, 6] was 99.9%, the “CD 86 MFI” value [1, 6] was 26.4 and the “CD 95 % positive cells” value [1, 6] was 90.6%. For the same molecule, the “CD 95 MFI” value [1, 6] was 1.40, the “αC5aR + GAR Alexa % positive cells” value [1, 6] was 45.9% and the “CD 44 MFI” value ([1]; Exp. 092398, 24 h, LPS 10 ng/ml, others 100 ng/ml, values printed with a trailing +) was 426+. The “GAR-Alexa % positive cells” value ([1]; Exp. 092398, 24 h, secondary reagent staining, LPS 10 ng/ml, others 100 ng/ml) was 3.9%, the “HLA-DR MFI” value ([1]; Exp. 092398, LPS 10 ng/ml, others 100 ng/ml) was 155.2 and the “CCR 6 % positive cells” value [1, 7] was 5.8%. For the same molecule, the “CD 1a % positive cells” value [1, 7] was 78.1%, the “CD 1a MFI” value [1, 7] was 6.06 and the “CD 3 % positive cells” value [1, 7] was 26.8%. For the same molecule, the “CD 3 MFI” value [1, 7] was 3.86, the “CD 4 % positive cells” value [1, 7] was 79.4% and the “CD 4 MFI” value [1, 7] was 3.11. The “CD 11c % positive cells” value [1, 7] was 91.0%, the “CD 11c MFI” value [1, 7] was 6.23 and the “CD 14 % positive cells” value [1, 7] was 4.1%. For the same molecule, the “CD 40 MFI” value [1, 7] was 30.4, the “CD 54 MFI” value [1, 7] was 36.8 and the “CD 62 L % positive cells” value [1, 7] was 4.0%. The “CD 80 % positive cells” value [1, 7] was 99.0%, the “CD 80 MFI” value [1, 7] was 10.9 and the “CD 83 % positive cells” value [1, 7] was 92.5%. For the same molecule, the “CD 83 MFI” value [1, 7] was 3.43, the “CD 86 % positive cells” value [1, 7] was 99.8% and the “CD 86 MFI” value [1, 7] was 26.3. For the same molecule, the “CD 123 % positive cells” value [1, 7] was 48.0%, the “CD 123 MFI” value [1, 7] was 1.85 and the “αC5aR + Alexa 488 % positive cells” value [1, 7] was 43.3%. The “αC5aR + Alexa 488 MFI” value [1, 7] was 9.41, the “HLA-DR MFI” value ([1]; Exp. 093098, LPS 10 ng/ml, others 100 ng/ml) was 134.3 and the “stimulating the expression of HLA-DR and co-stimulatory molecules (in words)” value ([1]; RC-529 compared with RC-544, three experiments) was “very comparable effects”. The “CD40 and CD83 expression (in words)” value ([1]; RC-544 compared with RC-529) was “slightly higher levels of CD40 and CD83 expression than did RC-529”, the “IL-12 p40” value ([2]; Exp. # 091698, LPS 10 ng/ml, others 100 ng/ml) was 42,500 pg/mL/5 × 10^5 Cells and the “IL-12 p70” value ([2]; Exp. # 092398 (second line, Day7), LPS 10 ng/ml, others 100 ng/ml) was 175.2 pg/ml/5 × 10^5 Cells. For the same molecule, the “IL-12 p40” value [2, 8] was 80,500 pg/mL/5 × 10^5 Cells, the TNF-α [2, 8] was 5.650 pg/mL/5 × 10^5 Cells and the “IL-12 p70” value ([2]; Exp. # 092398 as printed (first line of section), LPS 10 ng/ml, others 100 ng/ml) was 8.8 pg/ml/5 × 10^5 Cells. For the same molecule, the “IL-12 p70” value ([2]; Exp. # 092398 as printed (third line of section), LPS 10 ng/ml, others 100 ng/ml) was 55.7 pg/ml/5 × 10^5 Cells, the “IL-12 p40” value [2, 9] was 62,000 pg/mL/5 × 10^5 Cells and the TNF-α [2, 9] was 880 pg/mL/5 × 10^5 Cells. For the same molecule, the “IL-12 (p40) expression (in words)” value ([2]; all three experiments, LPS 10 ng/ml, others 100 ng/ml) was “also stimulated IL-12 (p40) responses”, the “IL-12 (p70) (in words)” value ([2]; the one donor in which LPS and MPL-S gave a significant amount) was “high levels of IL-12 (p70)” and the “TNF-α secretion (in words)” value ([2]; three donors) was “moderately lower than the effect due to RC-527”. The “IL-2 secretion (in words)” value ([3]; DCs prestimulated 15 hours, all T cell:APC ratios, FIG. 1) was “comparable in their ability to stimulate IL-2 secretion”, the “IL-12 (p70) in DC+D011.10 co-cultures (in words)” value ([3]; FIG. 5) was “overall weaker in their effect than LPS and RC-527” and the “IL-12 (p70) at T cell:APC ratio 16:1 (in words)” value ([3]; FIG. 6) was “substantially higher stimulation effect than that induced by RC-529”. For the same molecule, the “release of IL-12 (p40) homodimer in DC+D011.10 co-cultures (in words)” value ([3]; FIG. 7) was “weaker in their effect than LPS and RC-527” and the “T cell proliferation / DC activation, CPM 3H-thymidine response (in words)” value [4] was “highest levels of DC activation compared to MPL® immunostimulant”.
